Read-outs that look alike come from different tables or passages of the source.
Columns and labels:
Kappa Opioid = Kappa Opioid (Homo sapiens, UniProt P41145); experiment: Radioligand binding selectivity, Kappa Opioid
Source text: (§1) Similarly, Ki for the mu, kappa and delta opioids, serotonin, dopamine, adrenergic, mucarinic, and histamine receptors, as well as binding to the norepinephrine transporter, sodium channel, chloride channel, and calcium channel may be determined using membranes expressing the desired receptor/transporter/channels and appropriate corresponding radioligand competitor molecules.

Mu Opioid = Mu Opioid (Homo sapiens, UniProt P35372); experiment: Radioligand binding selectivity, Mu Opioid
Mu Opioid, sequence (P35372 whole entry): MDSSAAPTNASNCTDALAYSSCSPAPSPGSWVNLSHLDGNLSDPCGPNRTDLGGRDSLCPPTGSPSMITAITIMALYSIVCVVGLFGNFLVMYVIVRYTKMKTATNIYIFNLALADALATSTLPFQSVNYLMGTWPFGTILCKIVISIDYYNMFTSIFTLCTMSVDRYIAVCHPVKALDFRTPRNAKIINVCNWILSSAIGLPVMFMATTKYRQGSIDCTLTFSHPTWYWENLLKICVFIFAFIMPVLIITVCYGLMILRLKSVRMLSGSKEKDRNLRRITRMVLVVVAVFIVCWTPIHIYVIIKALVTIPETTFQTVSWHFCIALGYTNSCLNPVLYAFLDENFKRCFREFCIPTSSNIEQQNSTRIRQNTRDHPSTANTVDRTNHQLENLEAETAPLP
Source text: as §1

human ORL1 receptors = biological target: T1, human ORL1 receptors (Homo sapiens, UniProt P41146); experiment: [3H]-OFQ/nociceptin receptor binding assay
T1 construct: expressed in transfected cells; host or cells: CHO cells (membranes)
T1 sequence (P41146 whole entry): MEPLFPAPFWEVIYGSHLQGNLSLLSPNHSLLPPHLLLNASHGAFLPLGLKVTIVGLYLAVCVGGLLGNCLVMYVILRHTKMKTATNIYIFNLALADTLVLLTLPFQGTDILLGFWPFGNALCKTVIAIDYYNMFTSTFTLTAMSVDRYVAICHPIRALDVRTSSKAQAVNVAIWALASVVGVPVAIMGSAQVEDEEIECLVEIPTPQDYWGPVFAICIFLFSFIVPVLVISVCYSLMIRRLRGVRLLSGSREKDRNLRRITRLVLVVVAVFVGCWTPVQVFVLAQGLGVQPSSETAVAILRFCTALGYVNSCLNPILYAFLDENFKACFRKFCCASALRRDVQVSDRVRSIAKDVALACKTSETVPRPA
Description: Radioligand binding assays are commonly used to determine the affinity (Ki) or potency of a compound to bind to a particular receptor or target protein. A filtration-based [3H]-OFQ/nociceptin receptor binding assay is developed based on previous assay formats (Ardati A, Henningsen R A, Higelin J, Reinscheid R K, Civelli O, Monsma F J Jr. Mol. Pharmacol. 1997 May; 51(5):816-24.) with minor modifications. [3H]-OFQ/nociceptin binding assays are carried out in deep-well 96-well plates. [^3H]OFQ (final assay concentration 0.2 nM) competition studies are carried out with 5-10 μg of membrane protein (isolated from Chinese hamster ovary cells (CHO cells) expressing cloned human ORL1 receptors) in a final assay volume of 0.5 mL of buffer containing 20 mM HEPES, pH 7.4, 5 mM MgCl2, 1 mM EGTA, 100 mM NaCl, 0.1% bovine serum albumin. Samples are incubated for 60 min. at room temperature, which is found to be optimal for competition assays. The assays are terminated by filtration through glass fiber filters (Wallac filtermat A) [pretreated with 0.3% polyethylenimine (Sigma) for 1 hr] on a Tometc cell harvester, and the filters are washed three times with 5 mL of ice-cold 50 mM Tris.HCl, pH 7.4. Filtermats are then dried and imbedded with Meltilex scintillant A and the radioactivity counted in a Wallac Microbeta scintillation counter. Specific binding is determined by displacement with 100 nM unlabeled nociceptin. Curves are plotted as the percent of specific binding and IC50 values are determined using a sigmoidal dose response curve with variable slope. Ki values are calculated from the IC50 by the equation of Cheng and Prusoff (Cheng, Y. C., and Prusoff, W. H., Biochem. Pharmacol. 22, 3099-3108 (1973)) where Ki=IC50×(1+D×Kd^−1)^−1.

[1] = biological target: T2, nociceptin/ORL1 receptors (Rattus norvegicus, UniProt P35370); experiment: In vivo receptor occupancy (LC/MS/MS, RO Tracer) in hypothalamus; set-up: species or system rats; conditions: for receptor occupancy at 3 mg/kg: rat hypothalamus, 3 mg/kg oral dose, after 6 hr.
T2 construct: from tissue; host or cells: rat hypothalamus (in vivo)
T2 sequence (P35370 whole entry): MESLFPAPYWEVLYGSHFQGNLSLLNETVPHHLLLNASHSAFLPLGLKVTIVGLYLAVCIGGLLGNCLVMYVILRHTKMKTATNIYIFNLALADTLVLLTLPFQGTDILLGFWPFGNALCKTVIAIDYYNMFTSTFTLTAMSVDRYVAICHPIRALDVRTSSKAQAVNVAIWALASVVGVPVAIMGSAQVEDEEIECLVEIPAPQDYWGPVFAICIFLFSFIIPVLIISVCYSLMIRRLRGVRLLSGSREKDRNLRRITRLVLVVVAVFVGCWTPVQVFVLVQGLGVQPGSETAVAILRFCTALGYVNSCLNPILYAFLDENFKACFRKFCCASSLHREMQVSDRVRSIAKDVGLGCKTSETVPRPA
Description: Receptor occupancy (RO) using LC/MS/MS has been established as a way to measure central target engagement of putative ORL-1 antagonist in vivo. Nociceptin/ORL1 receptor occupancy (RO) is measured in the hypothalamus, a structure which contains a high density of nociceptin/ORL1 binding sites that are inside the blood brain barrier, using a novel proprietary nociceptin/ORL1 antagonist RO tracer, 2-[(2-fluorophenyl)methyl]-3-(2-fluorospiro[4,5-dihydrothieno[2,3-c]pyran-7,4′-piperidine]-1′-yl)-N,N-dimethyl-propanamide, (RO Tracer). These measurements are made without the need for a radiolabeled tracer as previously published for other receptors with modifications (Chemet E, Martin L J, Li D, Need A B, Barth V N, Rash K S, Phebus L A. Use of LC/MS to assess brain tracer distribution in preclinical, in vivo receptor occupancy studies: dopamine D2, serotonin 2A and NK-1 receptors as examples. Life Sci. 78(4):340-6, 2005.). A positive correlation has been established between central nociceptin/ORL1 RO and efficacy in the modulation of the feeding behavior and forced swim test in rodents. Central nociceptin/ORL1 RO is measured at 6 or 24 hours following oral administration of the test compound to rats. Male Sprague-Dawley rats (Harlan Sprague-Dawley, Indianapolis, Ind.) are treated orally with a test compound, or vehicle (20% Captisol, 25 mM phosphate buffer, pH 2.0). At 6 or 24 hours following administration of test compound/vehicle, all animals are administered an intravenous, 3 ng/kg dose of RO Tracer. It is at the time of RO Tracer administration that RO is considered to be measured. Forty minutes after RO Tracer administration, rats are sacrificed by cervical dislocation and the hypothalamus is removed. The level of RO Tracer is measured in each tissue sample.
The centrally active literature reference standard (−)-cis-1-methyl-7-[[4-(2,6-dichlorophenyl)piperidin-1-yl]methyl]-6,7,8,9-tetrahydro-5H-benzocyclohepten-5-ol (SB612111, see Magdalena and Heisler, supra), a potent nociceptin/ORL1 receptor selective antagonist, is used as a positive control to establish the RO Tracer level associated with 100% nociceptin/ORL1 RO. […]
Hypothalamic samples are homogenized in 4 volumes (w/v) of acetonitrile containing 0.1% formic acid and centrifuged at 14,000 RPM for 16 min. […] Detection of RO Tracer is accomplished by monitoring the precursor to product ion transition with a mass to charge ratio (m/z) of 435 to 239, with levels quantified by comparison to standards prepared in brain tissue homogenates. Zero percent RO is calculated as the level of RO Tracer in the hypothalamus of vehicle-pretreated animals, which represents the sum of nonspecific and specific binding (all receptors available to the tracer). […]

Kappa Opioid, sequence (P41145 whole entry): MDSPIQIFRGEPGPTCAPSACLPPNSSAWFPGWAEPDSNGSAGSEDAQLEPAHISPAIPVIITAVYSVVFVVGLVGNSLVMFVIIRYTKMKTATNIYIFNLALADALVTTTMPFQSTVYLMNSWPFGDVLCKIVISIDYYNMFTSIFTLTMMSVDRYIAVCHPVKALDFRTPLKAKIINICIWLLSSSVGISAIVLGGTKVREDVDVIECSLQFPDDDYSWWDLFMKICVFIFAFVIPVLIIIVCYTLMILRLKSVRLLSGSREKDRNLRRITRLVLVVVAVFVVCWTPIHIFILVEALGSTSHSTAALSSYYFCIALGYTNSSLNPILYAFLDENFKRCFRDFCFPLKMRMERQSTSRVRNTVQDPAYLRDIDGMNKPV

SMILES	Ki (Kappa Opioid; read-out: Ki Kappa Opioid) [nM]	Ki (Mu Opioid; read-out: Ki Mu Opioid) [nM]	Ki (human ORL1 receptors; [3H]OFQ 0.2 nM, CHO cell membranes, read-out: Ki ORL-1) [nM]	in vivo plasma concentration necessary to produce 80 percent RO (EC80 RO) ([1]; nociceptin/ORL1 receptors in the CNS)	receptor occupancy at 3 mg/kg [1] [%]	Ki (Kappa Opioid) [nM]	Ki (Mu Opioid) [nM]	Ki (human ORL1 receptors) [nM]
Cc1nn(-c2ncccc2CO)cc1CN1CCC2(CC1)OCC(F)(F)c1cc(Cl)sc12 [Example 62, [2-[4-[(2-Chloro-4,4-difluoro-spiro[5H-thieno[2,3-c]pyran-7,4′-piperidine]-1′-yl)methyl]-3-methyl-pyrazol-1-yl]-3-pyridyl]methanol]	> 430	> 451	0.18	approximately 41 nM	104			
Cc1nn(-c2ncccc2Cn2cccn2)cc1CN1CCC2(CC1)OCC(F)(F)c1cc(Cl)sc12.O=C(O)C(O)C(O)C(=O)O [Example 23, 2-Chloro-4,4-difluoro-1′-[[3-methyl-1-[3-(pyrazol-1-ylmethyl)-2-pyridyl]pyrazol-4-yl]methyl]spiro[5H-thieno[2,3-c]pyran-7,4′-piperidine] (L)-Tartrate]					80	> 430	> 451	0.79
O=C(O)C(O)C(O)C(=O)O.OCc1nn(-c2ncccc2F)cc1CN1CCC2(CC1)OCC(F)(F)c1cc(Cl)sc12 [Example 53, [4-[(2-Chloro-4,4-difluoro-spiro[5H-thieno[2,3-c]pyran-7,4′-piperidine]-1′-yl)methyl]-1-(3-fluoro-2-pyridyl)pyrazol-3-yl]methanol (L)-Tartrate]					83	> 430	> 451	0.45
